Publication PMC3758386 (Psychopharmacology, 2013)

Legend:
[1] = molecular target: T1, Adenosine A1 (Homo sapiens, UniProt P30542); test: receptor screen, Adenosine A1; type: binding; details: [3H]DPCPX, inactive = displacement at 10,000 nM less than 75%
T1 sequence (P30542 1-326): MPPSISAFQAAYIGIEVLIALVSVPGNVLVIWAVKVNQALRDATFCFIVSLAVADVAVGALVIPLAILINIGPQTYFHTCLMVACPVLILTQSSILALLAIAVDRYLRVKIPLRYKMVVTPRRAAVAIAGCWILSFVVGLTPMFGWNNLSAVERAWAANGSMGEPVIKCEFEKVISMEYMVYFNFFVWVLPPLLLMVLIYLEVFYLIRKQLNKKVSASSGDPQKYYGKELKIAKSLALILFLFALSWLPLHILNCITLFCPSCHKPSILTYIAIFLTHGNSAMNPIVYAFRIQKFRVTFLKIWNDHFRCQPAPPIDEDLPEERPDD

[2] = molecular target: Dopamine D2L (Homo sapiens, UniProt P14416); test: receptor screen, Dopamine D2L; type: binding; details: inactive = displacement at 10,000 nM less than 75%
[3] = molecular target: Estrogen ERα (Homo sapiens, UniProt P03372); test: receptor screen, Estrogen ERα; type: binding; details: inactive = displacement at 10,000 nM less than 75%
[4] = molecular target: T2, Glucocorticoid (Homo sapiens, UniProt P04150); test: receptor screen, Glucocorticoid; type: binding; details: inactive = displacement at 10,000 nM less than 75%
T2 sequence (P04150 1-777): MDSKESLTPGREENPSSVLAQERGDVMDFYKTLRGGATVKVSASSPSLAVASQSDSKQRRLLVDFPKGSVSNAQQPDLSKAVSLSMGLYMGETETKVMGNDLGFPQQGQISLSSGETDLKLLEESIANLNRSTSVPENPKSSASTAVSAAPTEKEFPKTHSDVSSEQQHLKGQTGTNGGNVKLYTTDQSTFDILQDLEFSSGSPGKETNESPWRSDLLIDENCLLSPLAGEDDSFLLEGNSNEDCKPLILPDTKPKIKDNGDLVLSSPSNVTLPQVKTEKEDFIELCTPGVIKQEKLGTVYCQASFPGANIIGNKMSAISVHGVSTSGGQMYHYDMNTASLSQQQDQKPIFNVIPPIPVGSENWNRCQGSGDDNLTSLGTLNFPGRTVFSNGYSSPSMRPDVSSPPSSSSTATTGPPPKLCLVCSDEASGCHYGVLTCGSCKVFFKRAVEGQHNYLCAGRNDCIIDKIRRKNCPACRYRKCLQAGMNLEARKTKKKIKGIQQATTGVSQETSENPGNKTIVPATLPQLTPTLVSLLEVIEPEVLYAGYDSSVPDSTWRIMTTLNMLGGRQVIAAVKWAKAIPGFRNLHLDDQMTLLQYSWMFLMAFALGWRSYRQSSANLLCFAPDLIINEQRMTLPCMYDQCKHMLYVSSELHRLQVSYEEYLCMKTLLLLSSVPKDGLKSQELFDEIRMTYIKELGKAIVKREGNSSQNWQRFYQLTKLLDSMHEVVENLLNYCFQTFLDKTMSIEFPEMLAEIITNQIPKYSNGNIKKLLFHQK

[5] = molecular target: T3, Muscarinic M2 (Homo sapiens, UniProt P08172); test: receptor screen, Muscarinic M2; type: binding; details: read-out: Ki Muscarinic M2, [3H]N-methylscopolamine
T3 sequence (P08172 1-466): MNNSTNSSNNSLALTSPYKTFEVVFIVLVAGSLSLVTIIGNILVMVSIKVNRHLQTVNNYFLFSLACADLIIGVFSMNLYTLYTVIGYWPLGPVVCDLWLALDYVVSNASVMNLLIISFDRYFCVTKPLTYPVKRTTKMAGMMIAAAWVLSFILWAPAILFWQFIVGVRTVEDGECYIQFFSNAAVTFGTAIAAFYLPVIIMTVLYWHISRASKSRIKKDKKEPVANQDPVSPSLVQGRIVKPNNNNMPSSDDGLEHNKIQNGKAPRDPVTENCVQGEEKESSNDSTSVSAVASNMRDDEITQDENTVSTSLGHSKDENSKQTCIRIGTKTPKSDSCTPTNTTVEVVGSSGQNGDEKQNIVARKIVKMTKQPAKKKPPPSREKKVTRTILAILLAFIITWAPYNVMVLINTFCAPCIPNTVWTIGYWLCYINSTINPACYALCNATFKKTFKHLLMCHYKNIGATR

[6] = molecular target: Muscarinic M3 (Homo sapiens, UniProt P20309); test: receptor screen, Muscarinic M3; type: binding; details: read-out: Ki Muscarinic M3, [3H]N-methylscopolamine
[7] = molecular target: T4, Progesterone (Bos taurus, UniProt F1N712); test: receptor screen, Progesterone; type: binding, Bovine; details: [3H]R-5020, inactive = displacement at 10,000 nM less than 75%
T4 sequence (F1N712 1-914): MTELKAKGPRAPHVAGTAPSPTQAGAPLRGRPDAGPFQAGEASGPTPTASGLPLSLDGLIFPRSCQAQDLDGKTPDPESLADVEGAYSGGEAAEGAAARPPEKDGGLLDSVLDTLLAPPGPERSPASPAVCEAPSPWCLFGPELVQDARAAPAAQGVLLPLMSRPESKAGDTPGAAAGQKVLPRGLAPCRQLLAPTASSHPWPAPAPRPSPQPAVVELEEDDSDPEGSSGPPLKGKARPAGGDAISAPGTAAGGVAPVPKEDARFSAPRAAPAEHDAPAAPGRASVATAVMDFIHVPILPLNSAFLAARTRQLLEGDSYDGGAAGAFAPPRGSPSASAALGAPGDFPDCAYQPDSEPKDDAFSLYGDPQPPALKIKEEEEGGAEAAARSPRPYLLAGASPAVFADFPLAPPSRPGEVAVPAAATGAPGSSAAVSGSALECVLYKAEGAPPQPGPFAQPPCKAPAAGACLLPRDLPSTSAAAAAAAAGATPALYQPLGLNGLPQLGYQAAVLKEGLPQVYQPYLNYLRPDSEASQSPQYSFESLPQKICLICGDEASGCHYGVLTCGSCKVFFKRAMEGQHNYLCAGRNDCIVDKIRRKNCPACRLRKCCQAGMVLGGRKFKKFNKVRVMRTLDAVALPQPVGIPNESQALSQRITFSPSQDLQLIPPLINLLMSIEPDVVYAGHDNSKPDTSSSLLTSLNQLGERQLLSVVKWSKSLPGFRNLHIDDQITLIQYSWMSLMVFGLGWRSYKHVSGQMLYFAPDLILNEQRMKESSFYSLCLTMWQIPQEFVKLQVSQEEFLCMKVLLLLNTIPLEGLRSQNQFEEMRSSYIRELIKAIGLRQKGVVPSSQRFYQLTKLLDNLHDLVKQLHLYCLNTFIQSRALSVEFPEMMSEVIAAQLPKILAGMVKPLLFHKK

[8] = molecular target: T5, Testosterone (Rattus norvegicus, UniProt P15207); test: receptor screen, Testosterone; type: binding; details: inactive = displacement at 10,000 nM less than 75%
T5 sequence (P15207 651-882 limits assumed): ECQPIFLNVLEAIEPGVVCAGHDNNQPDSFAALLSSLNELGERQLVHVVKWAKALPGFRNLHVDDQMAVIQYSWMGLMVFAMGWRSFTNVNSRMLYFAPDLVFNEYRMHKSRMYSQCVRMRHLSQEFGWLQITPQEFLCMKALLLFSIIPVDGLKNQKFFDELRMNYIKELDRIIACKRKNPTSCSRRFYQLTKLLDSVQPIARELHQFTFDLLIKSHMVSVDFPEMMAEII

[9] = test system: extracellular DA levels in the NAC shell; test: In vivo microdialysis, extracellular DA in NAC shell; details: rat
[10] = test system: rats; test: Place conditioning; type: in vivo; details: rat, i.p. (1 to 10 mg/kg), injected immediately before conditioning sessions
[11] = test system: Glutamate, NMDA, phencyclidine; test: receptor screen, Glutamate, NMDA, phencyclidine; type: binding, Rat; details: [3H]TCP, inactive = displacement at 10,000 nM less than 75%
[12] = molecular target: K+ Channel hERG (Homo sapiens, UniProt Q12809); test: receptor screen, K+ Channel hERG; type: binding; details: read-out: Ki K+ Channel hERG; receptor screen, [3H]Astemizole
[13] = molecular target: DAT; details: read-out: Ki DAT; ref Newman and Katz (2009); cited from earlier work
[14] = molecular target: SERT; details: read-out: Ki SERT; ref Woolverton et al., Psychopharmacology (2001); cited from earlier work
[15] = molecular target: NET; details: read-out: Ki NET; ref Woolverton et al., Psychopharmacology (2001); cited from earlier work

Muscarinic M3, sequence (P20309 whole entry): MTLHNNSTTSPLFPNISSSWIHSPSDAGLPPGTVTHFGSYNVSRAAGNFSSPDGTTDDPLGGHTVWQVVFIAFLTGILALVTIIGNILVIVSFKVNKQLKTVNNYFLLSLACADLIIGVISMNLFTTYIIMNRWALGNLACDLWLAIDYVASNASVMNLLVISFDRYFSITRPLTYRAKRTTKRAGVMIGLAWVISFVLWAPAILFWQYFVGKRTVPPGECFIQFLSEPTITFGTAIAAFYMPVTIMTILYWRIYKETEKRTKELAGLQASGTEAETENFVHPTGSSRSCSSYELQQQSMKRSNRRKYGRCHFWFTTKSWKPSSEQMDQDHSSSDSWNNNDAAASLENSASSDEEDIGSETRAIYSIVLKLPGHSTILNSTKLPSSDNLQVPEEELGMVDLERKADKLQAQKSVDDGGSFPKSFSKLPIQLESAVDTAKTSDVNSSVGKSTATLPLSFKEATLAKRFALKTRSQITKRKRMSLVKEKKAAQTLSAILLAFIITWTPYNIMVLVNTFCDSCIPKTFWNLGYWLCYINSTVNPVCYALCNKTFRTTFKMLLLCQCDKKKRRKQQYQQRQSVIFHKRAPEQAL
Dopamine D2L, sequence (P14416 whole entry): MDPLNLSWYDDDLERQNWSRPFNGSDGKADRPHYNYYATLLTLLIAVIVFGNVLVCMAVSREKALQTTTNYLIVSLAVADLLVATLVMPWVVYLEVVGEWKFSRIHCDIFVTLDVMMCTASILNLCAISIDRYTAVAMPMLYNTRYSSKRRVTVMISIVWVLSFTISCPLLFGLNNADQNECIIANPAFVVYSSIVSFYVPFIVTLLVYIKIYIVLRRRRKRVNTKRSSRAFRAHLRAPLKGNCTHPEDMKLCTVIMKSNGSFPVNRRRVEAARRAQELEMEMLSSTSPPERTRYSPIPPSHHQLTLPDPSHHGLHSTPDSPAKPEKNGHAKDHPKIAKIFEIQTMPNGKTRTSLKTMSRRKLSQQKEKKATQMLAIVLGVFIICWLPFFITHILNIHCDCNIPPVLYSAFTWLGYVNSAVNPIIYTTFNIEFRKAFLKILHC
K+ Channel hERG, sequence (Q12809 whole entry): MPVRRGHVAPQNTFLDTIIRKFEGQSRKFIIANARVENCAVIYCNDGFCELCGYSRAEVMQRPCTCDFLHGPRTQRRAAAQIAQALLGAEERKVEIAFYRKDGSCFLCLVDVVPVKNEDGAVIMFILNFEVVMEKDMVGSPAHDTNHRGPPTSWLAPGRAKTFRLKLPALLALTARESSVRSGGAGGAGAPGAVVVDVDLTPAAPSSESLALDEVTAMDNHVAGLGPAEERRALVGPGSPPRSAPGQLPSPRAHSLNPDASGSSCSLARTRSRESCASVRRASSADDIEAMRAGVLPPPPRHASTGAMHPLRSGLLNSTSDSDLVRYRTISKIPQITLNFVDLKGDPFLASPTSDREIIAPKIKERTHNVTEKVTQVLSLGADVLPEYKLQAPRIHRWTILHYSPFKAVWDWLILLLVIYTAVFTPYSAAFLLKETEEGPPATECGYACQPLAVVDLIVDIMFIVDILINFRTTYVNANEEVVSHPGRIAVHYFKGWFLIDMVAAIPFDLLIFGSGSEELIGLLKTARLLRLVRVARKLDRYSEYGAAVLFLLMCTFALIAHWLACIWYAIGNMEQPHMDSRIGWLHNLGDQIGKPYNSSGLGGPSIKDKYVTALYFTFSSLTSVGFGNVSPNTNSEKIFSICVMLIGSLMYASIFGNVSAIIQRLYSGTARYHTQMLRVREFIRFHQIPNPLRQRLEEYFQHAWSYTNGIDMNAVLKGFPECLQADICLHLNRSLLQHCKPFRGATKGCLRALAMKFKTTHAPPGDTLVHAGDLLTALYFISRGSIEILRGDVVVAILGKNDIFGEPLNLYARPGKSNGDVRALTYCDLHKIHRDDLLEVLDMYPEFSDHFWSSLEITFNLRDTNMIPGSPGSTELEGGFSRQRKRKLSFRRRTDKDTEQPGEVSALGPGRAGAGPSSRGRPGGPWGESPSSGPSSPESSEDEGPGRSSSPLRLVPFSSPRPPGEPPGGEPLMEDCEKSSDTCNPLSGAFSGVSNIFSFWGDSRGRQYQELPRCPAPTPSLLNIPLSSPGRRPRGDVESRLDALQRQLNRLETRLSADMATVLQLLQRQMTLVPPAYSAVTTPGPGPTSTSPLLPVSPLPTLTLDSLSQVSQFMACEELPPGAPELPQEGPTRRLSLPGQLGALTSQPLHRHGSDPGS
Estrogen ERα, sequence (P03372 whole entry): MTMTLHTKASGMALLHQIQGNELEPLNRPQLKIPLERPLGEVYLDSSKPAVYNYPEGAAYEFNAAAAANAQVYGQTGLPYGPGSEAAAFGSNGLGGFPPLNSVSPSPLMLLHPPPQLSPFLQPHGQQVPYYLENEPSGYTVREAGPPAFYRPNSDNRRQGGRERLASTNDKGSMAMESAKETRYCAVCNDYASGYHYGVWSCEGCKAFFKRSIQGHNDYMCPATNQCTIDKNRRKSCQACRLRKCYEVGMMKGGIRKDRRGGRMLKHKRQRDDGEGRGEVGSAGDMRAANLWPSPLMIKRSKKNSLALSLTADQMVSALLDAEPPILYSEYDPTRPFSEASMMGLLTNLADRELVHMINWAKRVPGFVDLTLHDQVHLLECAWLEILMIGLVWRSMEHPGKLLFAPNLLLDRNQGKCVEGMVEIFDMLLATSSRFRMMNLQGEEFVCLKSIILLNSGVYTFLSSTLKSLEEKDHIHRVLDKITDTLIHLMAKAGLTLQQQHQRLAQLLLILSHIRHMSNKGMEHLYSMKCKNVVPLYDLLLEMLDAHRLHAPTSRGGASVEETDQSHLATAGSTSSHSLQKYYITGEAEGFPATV

| Compound | Ki Adenosine A1 [1] | Ki Dopamine D2L [2] | Ki Estrogen ERα [3] | Ki Glucocorticoid [4] | Ki [5] [nM] | Ki [6] [nM] | Ki Progesterone [7] | Ki Testosterone [8] | effect on dialysate DA levels from the NAC shell ([9]; 1.0 mg/kg i.p.) | effect on dialysate DA levels from the NAC shell ([9]; 3.0 mg/kg i.p.) | effect on dialysate DA levels from the NAC shell ([9]; 10 mg/kg i.p.) | time after injection at which DA exceeded 165% of basal values ([9]; 10 mg/kg i.p.) [min] | time after injection until which DA increase continued (peak) ([9]; 10 mg/kg i.p.) | place conditioning (time allocated to compound-paired compartment) [10] | Ki Glutamate, NMDA, phencyclidine [11] | Ki [12] [nM] | Ki [13] [nM] | Ki [14] [nM] | Ki [15] [nM] |
| --- | --- | --- | --- | --- | --- | --- | --- | --- | --- | --- | --- | --- | --- | --- | --- | --- | --- | --- | --- |
| CN1C2CCC1CC(OC(c1ccc(Cl)cc1)c1ccc(Cl)cc1)C2 (stereo not drawn) [4,4-diCl-BZT, 4′-chloro-4″-chloro-3α-(diphenylmethoxy)tropane] | inactive | inactive | inactive | inactive | 640 | 10 | inactive | inactive | did not significantly affect DA levels | did not significantly affect DA levels | significant increase in DA levels | ≤ 20 | about 140 min | without significant place-conditioning effects |  |  |  |  |  |
| CN1C2CCC1CC(OC(c1ccccc1)c1ccc(Cl)cc1)C2 (stereo not drawn) [4-Cl-BZT, 4′-chloro-3α-(diphenylmethoxy)tropane] | inactive |  |  |  | 5.88 ± 0.63 | 0.384 ± 0.043 |  |  |  |  |  |  |  | did not increase the time allocated to the compound-paired compartment | inactive | 804 ± 300 | 10.5 ± 1.21 | 5120 ± 395 | 1470 ± 180 |
